Reference: patent US7582674B2, “Nutraceutical compositions and use thereof” (DSM IP Assets B.V., priority 2003, dated 2009)

Columns and labels:
[1] = tested on: murine macrophages RAW264.7; test: Inhibition of PGE2 (ELISA) production in LPS-stimulated macrophages; format: cell-based; settings: combination = actually determined inhibition
Protocol: (§1) In order to induce an in vitro ‘inflammatory response’, murine macrophages RAW264.7 were seeded into microtiter plates or 12-well plates and stimulated with lipopolysaccharide (LPS) without or with graded amounts of the test substances. Vehicle concentrations (i.e. DMSO) were kept constant. Culture supernatants were harvested after appropriate periods of time (4 to 24 hours). Prostaglandin E2 (PGE2) and nitrite produced from nitric oxide (NO) secreted into the culture medium were quantified by ELISA and the Griess reaction, respectively. The percentage of inhibition of PGE2 or NO production at a given concentration of the test substances (compared to maximal production by LPS-stimulated cells) was calculated.

[2] = tested on: murine macrophages RAW264.7; test: Inhibition of NO (nitrite, Griess reaction) production in LPS-stimulated macrophages; format: cell-based
Protocol: as §1

Oc1ccc(C=Cc2cc(O)cc(O)c2)cc1 [Resveratrol, resveratrol]
inhibition at 10 µM ([1]; Mus musculus, RAW264.7, Table 1, each substance at 10 μM): 26.8% | inhibition at 10 µM ([2]; Mus musculus, RAW264.7, Table 1, LPS-stimulated macrophages, each substance at 10 μM, combination = actually determined inhibition): 8.3% | inhibition at 2 µM ([2]; Mus musculus, RAW264.7, Table 2, LPS stimulated macrophages, Resveratrol 2 μM): 10%

(−)-Epigallocatechin gallate [EGCG]
% inhibition PGE2 ([1]; Table 1, each substance at 10 μM): 1.8% | % inhibition NO ([2]; Table 1, LPS-stimulated macrophages, each substance at 10 μM, combination = actually determined inhibition): 4.4%

CCC=CCC=CCC=CCC=CCC=CCCCC(=O)O [EPA, 5,8,11,14,17-eicosapentaenoic acid]
inhibition at 12.5 µM ([2]; Mus musculus, RAW264.7, Table 2, LPS stimulated macrophages, EPA 12.5 μM): 12.9%
